# Test system: DLD-1 cells
# Test: in vitro test with cancerous DLD1 colon cells treated continuously
# Format: cell-based
# Conditions: continuous treatment, about 125 μg·ml of Formula (2)
# Procedure: FIG. 1 illustrates the survival percentage colon DLD-1 carcinoma cells […] after continuous treatment with Formula (2).
# FIG. 1 illustrates the results of an in vitro test with cancerous DLD1 colon cells treated continuously with Formula (2). The survival percentage for DLD-1 cells decreases from 100 percent without treatment to less than 1 percent in the presence of continuous treatment of about 125 μg·ml of Formula (2).
smiles,measurement,value
"Cc1cccc(NC(C)c2ccccc2C)c1 (stereo not shown) [Formula (2), 3-methyl-N-(1-o-tolylethyl)benxenamine]",survival percentage for DLD-1 cells,less than 1%
